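Briefly, cells in 96-well plates were exposed to five compound concentrations for 48 h, and endpoints were estimated by linear interpolation. At the GI50, growth is halved.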 Activity calls are given as the source filed them. No stated cut-off is given here; in the data, active = GI50 up to about 1.1 µM and inactive = higher.
Legend:
Experiment in all cases: inhibition of tumour cell growth, NCI panel, 48 h
[1] = test system: ACHN
[2] = test system: COLO 205
[3] = test system: DU-145
[4] = test system: IGROV-1
[5] = test system: K562
[6] = test system: MCF7
[7] = test system: MDA-MB-231
[8] = test system: Malme-3M
[9] = test system: NCI-H226
[10] = test system: OVCAR-5
[11] = test system: RXF 393
[12] = test system: SK-MEL-28
[13] = test system: SK-MEL-2
[14] = test system: SK-OV-3
[15] = test system: SNB-19
[16] = test system: SNB-75
[17] = test system: SW-620
[18] = test system: UACC-257
[19] = test system: UACC-62

Measured: GI50

CC1=CC[C@@]2(C)CC[C@](O)(C(C)C)C2C(OC(=O)c2ccccc2)C1 (stereo partly drawn)
inactive: [1] 17.8 µM | [2] 22.1 µM | [3] 18.1 µM | [4] 15.6 µM | [5] 19.5 µM | [6] 17.9 µM | [7] 17.9 µM | [8] 21 µM | [9] 23.8 µM | [10] 16 µM | [11] 12.7 µM | [12] 24 µM | [13] 14.4 µM | [14] 14.3 µM | [15] 20.7 µM | [16] 17.5 µM | [17] 22.3 µM | [18] 18.9 µM

O=C1NC(N2CCCCC2)=N/C1=C\c1ccccc1
inactive: [1] > 100 µM | [2] > 100 µM | [3] > 100 µM | [4] > 100 µM | [6] > 100 µM | [7] > 100 µM | [8] > 100 µM | [9] > 100 µM | [10] > 100 µM | [11] > 100 µM | [12] > 100 µM | [13] > 100 µM | [14] > 100 µM | [15] > 100 µM | [16] > 100 µM | [17] > 100 µM | [18] > 100 µM | [19] > 100 µM

Cc1ccc(-n2c(N)c(C#N)c3[nH]nc(N)c3c2=O)cc1
inactive: [1] > 100 µM | [2] > 100 µM | [3] > 100 µM | [4] > 100 µM | [5] > 100 µM | [6] > 100 µM | [7] > 100 µM | [9] 41 µM | [11] > 100 µM | [12] > 100 µM | [13] > 100 µM | [14] > 100 µM | [15] > 100 µM | [16] > 100 µM | [17] > 100 µM | [18] > 100 µM | [19] > 100 µM

O=C1Oc2ccccc2C(=O)/C1=C/NC(=S)NCCc1ccccc1
inactive: [1] 19.2 µM | [2] 48.4 µM | [3] 23.4 µM | [4] 27 µM | [5] > 100 µM | [6] 56.1 µM | [7] 37.8 µM | [9] > 100 µM | [10] 68.4 µM | [11] 39.8 µM | [12] > 100 µM | [13] 19.4 µM | [14] 33.6 µM | [15] 37.7 µM | [16] 22.7 µM | [17] 42.6 µM | [18] 62.1 µM | [19] 26.9 µM

O=C(O)c1ccc(C2=Nc3cccc4cccc(c34)N2)cc1
inactive: [1] > 100 µM | [2] > 100 µM | [3] > 100 µM | [4] > 100 µM | [5] > 100 µM | [6] > 100 µM | [7] > 100 µM | [8] > 100 µM | [9] > 100 µM | [11] > 100 µM | [12] > 100 µM | [13] > 100 µM | [14] > 100 µM | [15] > 100 µM | [16] > 100 µM | [17] > 100 µM | [18] > 100 µM | [19] > 100 µM

Cc1cc(S(=O)(=O)NC2=Nc3cccc(F)c3CN2)c(S)cc1Cl
inactive: [1] 66.4 µM | [2] > 100 µM | [3] 74.5 µM | [4] 36.2 µM | [6] 61.7 µM | [7] > 100 µM | [8] > 100 µM | [9] > 100 µM | [10] > 100 µM | [11] > 100 µM | [12] 95.9 µM | [13] 35.6 µM | [15] 23.2 µM | [16] > 100 µM | [17] 53.6 µM | [18] > 100 µM | [19] 62.1 µM

O=C1CC(=O)NC(NN2C(=O)/C(=C/C(=O)c3ccco3)N=C2c2ccccc2)=N1
inactive: [1] > 100 µM | [2] > 100 µM | [3] > 100 µM | [4] 43.3 µM | [6] 95.1 µM | [7] > 100 µM | [8] 7 µM | [9] > 100 µM | [10] > 100 µM | [11] 66.8 µM | [12] > 100 µM | [13] 92.7 µM | [14] > 100 µM | [16] 22.2 µM | [17] 73.6 µM | [18] 92.3 µM | [19] 37.7 µM

COc1cc2c(cc1OS(C)(=O)=O)N=C[C@@H]1CCCN1C2=O
inactive: [1] > 100 µM | [2] > 100 µM | [3] > 100 µM | [4] > 100 µM | [6] > 100 µM | [7] > 100 µM | [8] > 100 µM | [9] > 100 µM | [11] > 100 µM | [12] > 100 µM | [13] > 100 µM | [14] > 100 µM | [15] > 100 µM | [16] > 100 µM | [17] > 100 µM | [18] > 100 µM | [19] > 100 µM

Cc1csc(-n2c(C)nc3cc(Cl)ccc3c2=O)n1
inactive: [1] > 100 µM | [2] 71 µM | [3] > 100 µM | [4] 33.2 µM | [5] 83.6 µM | [6] 31.5 µM | [7] > 100 µM | [9] > 100 µM | [10] > 100 µM | [11] > 100 µM | [12] > 100 µM | [13] > 100 µM | [14] > 100 µM | [15] > 100 µM | [16] > 100 µM | [17] > 100 µM | [18] 91.6 µM | [19] > 100 µM

COc1ccc(-c2nc(-c3cc4c(ccc5ccccc54)oc3=O)cs2)cc1
inactive: [1] > 100 µM | [2] > 100 µM | [3] > 100 µM | [4] > 100 µM | [5] > 100 µM | [6] > 100 µM | [7] 73.6 µM | [9] 31 µM | [10] > 100 µM | [11] > 100 µM | [12] > 100 µM | [13] > 100 µM | [14] > 100 µM | [15] > 100 µM | [16] 66.5 µM | [17] > 100 µM | [18] > 100 µM | [19] > 100 µM

CCCCc1cc2c(C)cc(=O)oc2c(O)c1O
inactive: [1] 33 µM | [2] 25.8 µM | [3] 32.2 µM | [4] 24.6 µM | [5] 27.4 µM | [6] 21.4 µM | [7] 13.6 µM | [8] 27.8 µM | [9] 23.9 µM | [10] 69.7 µM | [11] 24.8 µM | [12] 37.3 µM | [13] 3.6 µM | [15] 37.9 µM | [16] 27.1 µM | [17] 28.2 µM | [18] 20.4 µM

— ChEMBL document CHEMBL1201862, “PubChem BioAssay data set” (2004)
